The text below walks through data of US20090062355A1, “Pharmaceutical Product” (Takeda Pharmaceutical Company Limited, priority 2006, published 2009).

What all share (assay type): cell-based
For experiment [1], the system named is Peripheral Blood Mononuclear Cells. Kind of experiment: Influence on binding of LPS to PBMC (flow cytometry). Conditions: 10 μM; 4° C. 30 min, then labeled LPS 50 ng/mL, 1% human serum, 37° C. 45 min; FIG. 2. An excerpt:
FIG. 2 is a graph showing the effects of test compound 1, anti-CD14 antibody and anti-CCR5 antibody on the binding of LPS to PBMC. With an average of triplicate measurement values of LPS alone as 100%, % averages of triplicate measurement values of other groups are shown, mean±standard error (Experimental Example 6, results of 4 independent tests using PBMC obtained from the blood of different 4 subjects).
Peripheral Blood Mononuclear Cells were Separated by a conventional method, and reacted with test compound 1 (compound 72 of Reference Example B66), anti-human CD14 monoclonal antibody MEM-18 and anti-human CCR5 monoclonal antibody 2D7 (negative control) at 4° C. for 30 min. The cells were reacted with fluorescence label LPS (E. coli O55:B5, Alexa Fluor® 488-labeled, 50 ng/mL) in the presence of 1% human serum at 37° C. for 45 min. The cells (10,000 cells) were washed and the binding of fluorescence label LPS was examined by flow cytometry.

The subject of experiment [2] is mouse macrophage cell line RAW264.7 cells. Kind of experiment: Inhibitory action on intracellular signal transduction after LPS stimulation (Bioplex phosphorylated protein assay). Conditions: LPS 10 ng/mL; 1, 3, 10, 20, 30 min; FIG. 1. An excerpt: FIG. 1-1 is a graph showing the effect of test compound 1 on phosphorylated protein (ATF2) after LPS addition in mouse macrophage cells. An average of triplicate measurement values is shown, mean±standard error (Experimental Example 5, n=3).
FIG. 1-2 is a graph showing the effect of test compound 1 on phosphorylated protein (JNK) after LPS addition in mouse macrophage cells. An average of triplicate measurement values is shown, mean±standard error (Experimental Example 5, n=3).
FIG. 1-3 is a graph showing the effect of test compound 1 on phosphorylated protein (p38MAPK) after LPS addition in mouse macrophage cells. An average of triplicate measurement values is shown, mean±standard error (Experimental Example 5, n=3).
FIG. 1-4 is a graph showing the effect of test compound 1 on phosphorylated protein (IκBα) after LPS addition in mouse macrophage cells. An average of triplicate measurement values is shown, mean±standard error (Experimental Example 5, n=3). […]
A suppressive effect of test compound 1 (compound 72 of • Reference Example B66) on the production of various cytokines by lipopolysaccharide (LPS), which is a TLR4 agonist, using mouse macrophage cell line RAW264.7 cells was examined. […] The supernatant was recovered, and phosphorylated protein was quantified using Bioplex phosphorylated protein assay (Bio-Rad). […]

Experiment [3] shares this test system. As to the kind of experiment: Suppressive action on production of mediator from LPS stimulated macrophage. Conditions: LPS 10 ng/ml, overnight culture. As to the method:
A suppressive effect of test compound 1 (compound 72 of Reference Example B66) on the production of various mediators by lipopolysaccharide (LPS), which is a TLR4 agonist, using mouse macrophage cell line RAW264.7 cells was examined. The day before the experiment, the cells were suspended to 5×10^5 cells/mL in RPMI1640 medium supplemented with 10% inactivated fetal bovine serum, plated on a 96 well microplate at 0.2 mL/well and incubated at 37° C., 5% CO2/95% air overnight. The medium was changed to RPMI1640 medium supplemented with 1% inactivated fetal bovine serum, and test compound 1 and LPS (final concentration 10 ng/ml) was added. After overnight culture, cytokine, chemokine, prostaglandin E2 in the culture supernatant was quantified by ELISA, and nitrite ion (stable metabolite of NO) concentration was quantified by a fluorescence method using 2,3-diaminonaphthalene. Test compound 1 was dissolved in N,N-dimethylformamide to 10 mM, diluted with RPMI1640 medium supplemented with 1% inactivated fetal bovine serum to 0.1 mM, further diluted with the medium to 10-fold concentration of the final concentration and 1/10 thereof was added. Test compound 1 suppressed almost all the examined mediator production at an equivalent IC50.

Read-outs that look alike come from different tables or passages of the source.

Take `CCOC(=O)C1=CCCC[C@H]1S(=O)(=O)Nc1ccc(F)cc1Cl` [test compound 1, ethyl (6R)-6-[(2-chloro-4-fluoroanilino)sulfonyl]-1-cyclohexene-1-carboxylate]: the “binding of fluorescence label LPS to PBMC” value in experiment [1] was “completely failed to inhibit”. Besides, the “phosphorylated protein after LPS addition (ATF2, JNK, p38MAPK, IκBα, ERK1/2, p90RSK, STAT2, p70 S6 Kinase)” value in experiment [2] is on record as “suppressed phosphorylation of all examined proteins involved in LPS signal transduction”. Besides, the IC50 in experiment [3] (ELISA, read-out: IC50, IL-1α production) was 1.1 nM; in experiment [3] (ELISA, read-out: IC50, IL-6 production) it was 2 nM; in experiment [3] (ELISA, read-out: IC50, IL-10 production), 1.6 nM; in experiment [3] (ELISA, read-out: IC50, MIP-2 production), 7.1 nM; in experiment [3] (ELISA, read-out: IC50, PGE2 production), 4 nM; in experiment [3] (ELISA, read-out: IC50, TNF-α production) it was 3.1 nM. Moreover, the IC50 in experiment [3] (fluorescence method with 2,3-diaminonaphthalene, read-out: IC50, NO production (nitrite ion)) was 1.8 nM.
